Reference: ChEMBL document CHEMBL6114986, “Vitexin alleviates lipid metabolism disorders and hepatic injury in obese mice through the PI3K/AKT/mTOR/SREBP-1c pathway” (Eur J Med Chem, 2025)
Active and inactive are the calls of the source. The rule behind the calls is not given here.

Assays:
Type in all cases: functional, organism-based
Mus musculus [1] = experiment: Anti-obesity activity in C57BL/6 mouse assessed as reduction in liver TNF-alpha level at high dose administered intragastrically once daily for 5 weeks relative to control; parameters: scale not given: the % may be the effect or the level left; conditions: route ig
Mus musculus [2] = experiment: Anti-obesity activity in C57BL/6 mouse assessed as reduction in liver IL-6 level at high dose administered intragastrically once daily for 5 weeks relative to control; parameters: scale not given: the % may be the effect or the level left; conditions: route ig
Mus musculus [3] = experiment: Anti-obesity activity in C57BL/6 mouse assessed as final weight at low dose administered intragastrically once daily for 5 weeks (reference value: 28.86 +/- 0.86 g); conditions: route ig
Mus musculus [4] = experiment: Anti-obesity activity in C57BL/6 mouse assessed as liver IL-6 level at high dose administered intragastrically once daily for 5 weeks (reference value: 1042.25 +/- 21.85 pg/g); conditions: route ig
Mus musculus [5] = experiment: Anti-obesity activity in C57BL/6 mouse assessed as reduction in body weight at high dose administered intragastrically once daily for 5 weeks relative to control; parameters: scale not given: the % may be the effect or the level left; conditions: route ig
Mus musculus [6] = experiment: Anti-obesity activity in C57BL/6 mouse assessed as reduction in adipocyte volume at low to high dose administered intragastrically once daily for 5 weeks by CT analysis; conditions: route ig
Mus musculus [7] = experiment: Anti-obesity activity in C57BL/6 mouse assessed as reduction in lipid droplets in liver at low to high dose administered intragastrically once daily for 5 weeks by H and E staining based analysis; conditions: route ig
Mus musculus [8] = experiment: Anti-obesity activity in C57BL/6 mouse assessed as liver TNF-alpha level at low dose administered intragastrically once daily for 5 weeks (reference value: 5940.65 +/- 261.75 pg/g)
Mus musculus [9] = experiment: Anti-obesity activity in C57BL/6 mouse assessed as reduction in serum TG level at high dose administered intragastrically once daily for 5 weeks relative to control; parameters: scale not given: the % may be the effect or the level left; conditions: route ig
Mus musculus [10] = experiment: Anti-obesity activity in C57BL/6 mouse assessed as initial weight at low dose administered intragastrically once daily for 5 weeks (reference value: 19.06 +/- 0.94 g); conditions: route ig
Mus musculus [11] = experiment: Anti-obesity activity in C57BL/6 mouse assessed as decrease in […] level in liver at low to high dose administered intragastrically once daily for 5 weeks by immunoblot analysis; conditions: route ig
Mus musculus [12] = experiment: Anti-obesity activity in C57BL/6 mouse assessed as final weight at high dose administered intragastrically once daily for 5 weeks (reference value: 28.86 +/- 0.86 g); conditions: route ig
Mus musculus [13] = experiment: Anti-obesity activity in C57BL/6 mouse assessed as liver index at high dose administered intragastrically once daily for 5 weeks (reference value: 3.97 +/- 0.09 %); conditions: route ig
Mus musculus [14] = experiment: Anti-obesity activity in C57BL/6 mouse assessed as decrease in IL-1beta level in liver at low to high dose administered intragastrically once daily for 5 weeks by immunoblot analysis; conditions: route ig
Mus musculus [15] = experiment: Anti-obesity activity in C57BL/6 mouse assessed as liver weight at low dose administered intragastrically once daily for 5 weeks (reference value: 1.15 +/- 0.04 g); conditions: route ig
Mus musculus [16] = experiment: Anti-obesity activity in C57BL/6 mouse assessed as reduction in inflammatory cell infiltration in liver at low to high dose administered intragastrically once daily for 5 weeks by H and E staining based analysis; conditions: route ig
Mus musculus [17] = experiment: Anti-obesity activity in C57BL/6 mouse assessed as serum TG level at high dose administered intragastrically once daily for 5 weeks (reference value: 13.13 +/- 1.10 mmol/g)
Mus musculus [18] = experiment: Anti-obesity activity in C57BL/6 mouse assessed as initial weight at high dose administered intragastrically once daily for 5 weeks (reference value: 19.06 +/- 0.94 g); conditions: route ig
Mus musculus [19] = experiment: Anti-obesity activity in C57BL/6 mouse assessed as reduction in subabdominal fat thickness at low to high dose administered intragastrically once daily for 5 weeks by CT analysis; conditions: route ig
Mus musculus [20] = experiment: Anti-obesity activity in C57BL/6 mouse assessed as serum TC level at low dose administered intragastrically once daily for 5 weeks (reference value: 11.12 +/- 0.32 mmol/g)
Mus musculus [21] = experiment: Anti-obesity activity in C57BL/6 mouse assessed as serum IL-18 level at high dose administered intragastrically once daily for 5 weeks (reference value: 149.1 +/- 2.066 pg/ml)
Mus musculus [22] = experiment: Anti-obesity activity in C57BL/6 mouse assessed as serum TC level at high dose administered intragastrically once daily for 5 weeks (reference value: 11.12 +/- 0.32 mmol/g)
Mus musculus [23] = experiment: Anti-obesity activity in C57BL/6 mouse assessed as weight difference at high dose administered intragastrically once daily for 5 weeks (reference value: 9.80 +/- 0.97 g); conditions: route ig
Mus musculus [24] = experiment: Anti-obesity activity in C57BL/6 mouse assessed as weight difference at low dose administered intragastrically once daily for 5 weeks (reference value: 9.80 +/- 0.97 g); conditions: route ig
Mus musculus [25] = experiment: Anti-obesity activity in C57BL/6 mouse assessed as decrease in ratio of p-mTOR/mTOR levels in liver at low to high dose administered intragastrically once daily for 5 weeks by immunoblot analysis; conditions: route ig
Mus musculus [26] = experiment: Anti-obesity activity in C57BL/6 mouse assessed as serum IL-18 level at low dose administered intragastrically once daily for 5 weeks (reference value: 149.1 +/- 2.066 pg/ml)
Mus musculus [27] = experiment: Anti-obesity activity in C57BL/6 mouse assessed as decrease in ratio of p-IkappaBalpha/IkappaBalpha levels in liver at low to high dose administered intragastrically once daily for 5 weeks by immunoblot analysis; conditions: route ig
Mus musculus [28] = experiment: Anti-obesity activity in C57BL/6 mouse assessed as decrease in ratio of p-PI3K/PI3K levels in liver at low to high dose administered intragastrically once daily for 5 weeks by immunoblot analysis; conditions: route ig
Mus musculus [29] = experiment: Anti-obesity activity in C57BL/6 mouse assessed as liver weight at high dose administered intragastrically once daily for 5 weeks (reference value: 1.15 +/- 0.04 g); conditions: route ig
Mus musculus [30] = experiment: Anti-obesity activity in C57BL/6 mouse assessed as decrease in ratio of p-NFkappaB/NFkappaB levels in liver at low to high dose administered intragastrically once daily for 5 weeks by immunoblot analysis; conditions: route ig
Mus musculus [31] = experiment: Anti-obesity activity in C57BL/6 mouse assessed as reduction in serum IL-18 level at high dose administered intragastrically once daily for 5 weeks relative to control; parameters: scale not given: the % may be the effect or the level left; conditions: route ig
Mus musculus [32] = experiment: Anti-obesity activity in C57BL/6 mouse assessed as liver IL-6 level at low dose administered intragastrically once daily for 5 weeks (reference value: 1042.25 +/- 21.85 pg/g)
Mus musculus [33] = experiment: Anti-obesity activity in C57BL/6 mouse assessed as reduction in serum TC level at high dose administered intragastrically once daily for 5 weeks relative to control; parameters: scale not given: the % may be the effect or the level left; conditions: route ig
Mus musculus [34] = experiment: Anti-obesity activity in C57BL/6 mouse assessed as liver TNF-alpha level at high dose administered intragastrically once daily for 5 weeks (reference value: 5940.65 +/- 261.75 pg/g); conditions: route ig
Mus musculus [35] = experiment: Anti-obesity activity in C57BL/6 mouse assessed as liver index at low dose administered intragastrically once daily for 5 weeks (reference value: 3.97 +/- 0.09 %); conditions: route ig
Mus musculus [36] = experiment: Anti-obesity activity in C57BL/6 mouse assessed as serum TG level at low dose administered intragastrically once daily for 5 weeks (reference value: 13.13 +/- 1.10 mmol/g)
Mus musculus [37] = experiment: Anti-obesity activity in C57BL/6 mouse assessed as decrease in ratio of p-AKT/AKT levels in liver at low to high dose administered intragastrically once daily for 5 weeks by immunoblot analysis; conditions: route ig

O=c1cc(-c2ccc(O)cc2)oc2c([C@@H]3O[C@H](CO)[C@@H](O)[C@H](O)[C@H]3O)c(O)cc(O)c12
Activity (Mus musculus [1]): 30.8% | Activity (Mus musculus [2]): 22.7% | Activity (Mus musculus [3]): 26.7 g | Activity (Mus musculus [4]): 806 pg/g | Activity (Mus musculus [5]): 13.8% | Activity (Mus musculus [6]): Active | Activity (Mus musculus [7]): Active | Activity (Mus musculus [8]): 5140 pg/g | Activity (Mus musculus [9]): 37.3% | Activity (Mus musculus [10]): 21 g | Activity (Mus musculus [11]): Active | Activity (Mus musculus [12]): 24.9 g | Activity (Mus musculus [13]): 3.23 g | Activity (Mus musculus [14]): Active | Activity (Mus musculus [15]): 1.06 g | Activity (Mus musculus [16]): Active | Activity (Mus musculus [17]): 8.23 mmol/g | Activity (Mus musculus [18]): 20.8 g | Activity (Mus musculus [19]): Active | Activity (Mus musculus [20]): 8.44 mmol/g | Activity (Mus musculus [21]): 108 pg/mL | Activity (Mus musculus [22]): 7.81 mmol/g | Activity (Mus musculus [23]): 4.07 g | Activity (Mus musculus [24]): 5.76 g | Activity (Mus musculus [25]): Active | Activity (Mus musculus [26]): 125 pg/mL | Activity (Mus musculus [27]): Active | Activity (Mus musculus [28]): Active | Activity (Mus musculus [29]): 0.8 g | Activity (Mus musculus [30]): Active | Activity (Mus musculus [31]): 27.6% | Activity (Mus musculus [32]): 829 pg/g | Activity (Mus musculus [33]): 29.8% | Activity (Mus musculus [34]): 4110 pg/g | Activity (Mus musculus [35]): 3.6% | Activity (Mus musculus [36]): 8.71 mmol/g | Activity (Mus musculus [37]): Active
